Test results as given in patent EP4796551A1, “ZWITTERIONIC PHOSPHOLIPID COMPOUND AND LIPID NANOPARTICLE CONTAINING THE SAME” (National University Corporation Hokkaido University, priority 2023, dated 2025).

Experiments:
[1] = Particle size, PDI and ζ-potential of mRNA-LNP (Zetasizer Nano ZS); type: physicochemical; conditions: mRNA-LNP formulation phospholipid:CL4F6:Chol:PEG-DMG 10:50:40:1.0, Fluc mRNA
Protocol: (§1) Ethanol solutions containing each phospholipid, CL4F6, Chol, and PEG2000-dimirystoylglycerol (PEG-DMG) at the molar ratio of 10:50:40:1.0 were prepared at the total lipid concentration of 16 mM. For fluorescent labeling of LNPs, 0.5 mol% of DiI or DiR was added to the above solutions. The firefly luciferase (Fluc)-encoding mRNA (TriLink) was dissolved in a 25 mM acetate buffer (pH 4.0). LNPs were prepared by mixing the lipids in ethanol and RNA in an aqueous solution using an iLiNP device at a total flow rate (TFR) of 0.5 mL/min and a flow rate ratio (FRR) (RNA flow rate/lipid flow rate) of 3. The nitrogen to phosphate (N/P) ratio was adjusted to 6. Syringe pumps (Harvard apparatus) were used to control the flow rate of the solutions. The resulting LNP solutions were then dialyzed for 2 hours or more at 4 °C against phosphate buffered saline without Ca^2+ and Mg^2+ (PBS(-)) using Spectra/Por 4 dialysis membranes (molecular weight cut-off 12,000-14,000 Da, Spectrum Laboratories). The LNP solutions were concentrated by ultrafiltration using an Amicon Ultra-15 unit (MWCO 100 kDa, Millipore) as needed.
(§2) The ζ-average particle size, polydispersity index (PDI), and ζ-potential of the LNPs were measured by means of a Zetasizer Nano ZS ZEN3600 instrument (Malvern Instruments). The encapsulation efficiency and total concentration of mRNA were measured by a Ribogreen assay according to a conventional method.

[2] = Ribogreen assay, mRNA encapsulation efficiency of LNP; type: physicochemical; conditions: mRNA-LNP formulation phospholipid:CL4F6:Chol:PEG-DMG 10:50:40:1.0, Fluc mRNA
Protocol: as §1, §2

liver = test: mRNA introduction ability: luciferase activity in the liver after intravenous Fluc mRNA-LNP; type: in vivo, BALB/c mice; conditions: Figs. 3 and 4, LNP containing the phospholipid, 0.01 mg RNA/kg, livers collected 6 hours later
Protocol: as §1, with “The resulting LNP solutions were then dialyzed for 2 hours or more at 4 °C against phosphate buffered saline without Ca^2+ and Mg^2+ (PBS(-)) using Spectra/Por 4 dialysis membranes (molecular weight cut-off 12,000-14,000 Da, Spectrum Laboratories). The LNP solutions were concentrated by ultrafiltration using an Amicon Ultra-15 unit (MWCO 100 kDa, Millipore) as needed.” left out
The mRNA-LNP formulations prepared in the above item (2) were intravenously administered to BALB/c mice at a dose of 0.01 mg RNA/kg, and the livers were collected by a conventional method 6 hours later. […] The supernatant was collected, and […] was measured by a luminometer (Luminescencer-PSN, ATTO Corporation) using Luciferase Assay System (Promega). The protein concentration was determined using a BCA protein assay kit (Pierce). Fluc activity was expressed as relative light units (RLU) per 1 mg of protein.

[3] = Lipid polymorphism by 31P NMR method (mixtures with POPC); type: physicochemical; conditions: lipid:POPC molar ratio 1:1, 20 mM HEPES pH 7.4, room temperature
Protocol: In order to examine the interaction between DOPE-Cx and PC and characteristics thereof, lipid polymorphism of the lipid suspension was evaluated by a ^31P NMR method. Since the rotational motion of lipid molecules in a lamellar phase which is a planar structure and a (inverted) hexagonal phase which is a tubular structure receives different restrictions respectively, a specific ^31P NMR spectrum is provided by chemical shift anisotropy. Specifically, the lamellar phase produces a broad […] peak, and the (inverted) hexagonal phase produces a broad […] peak.
First, DOPE or DOPE-C8 and 1-palmitoyl-2-oleoyl-sn-glycero-3-phosphocholine (POPC) were mixed at a predetermined ratio in 400 µL of chloroform (total lipid 16 µmol), and the solvent was removed by a rotary evaporator to form a lipid membrane. The lipid membrane was hydrated with 500 µL of 20 mM HEPES buffer (pH 7.4, 130 mM NaCl) at 60°C. Then, the lipid dispersion was transferred to an NMR tube, and a ^31P NMR spectrum at room temperature was measured by a conventional method using an ECX 400P spectrometer (JEOL Ltd.).

Compound	Number average particle size (nm) ([1]; Table 2)	PDI ([1]; Table 2)	ζ-average particle size (nm) ([1]; Table 2)	ζ-potential (mV) ([1]; Table 2)	mRNA encapsulation rate % ([2]; Table 2) [%]	Number average particle size (nm) ([1]; Table 1)	PDI ([1]; Table 1)	ζ-potential (mV) ([1]; Table 1)	ζ-average particle size (nm) ([1]; Table 1, N/P 6)	mRNA encapsulation rate % ([2]; Table 1) [%]	lipid phase by 31P NMR spectrum [3]	other results
CCCCCCCC/C=C\CCCCCCCC(=O)OC[C@H](COP(=O)(O)OCCNCCC(=O)OCC(C)CCC)OC(=O)CCCCCCC/C=C\CCCCCCCC (stereo partly drawn) [DOPE-C5_β1, (R)-2,3-bis(oleoyloxy)propyl (2-((3-((2-methylpentyl)oxy)-3-oxopropyl)ammonio)ethyl) phosphate]	60	0.21	94	-6.4	95.9							
CCCCCCCC/C=C\CCCCCCCC(=O)OC[C@H](COP(=O)(O)OCCNCCC(=O)OC(CCC)CCC)OC(=O)CCCCCCC/C=C\CCCCCCCC [DOPE-C4_α3, (R)-2,3-bis(oleoyloxy)propyl (2-((3-(heptan-4-yloxy)-3-oxopropyl)ammonio)ethyl) phosphate]												Number average particle size (nm) ([1]; Table 3): 52 nm; PDI ([1]; Table 3): 0.21; ζ-average particle size (nm) ([1]; Table 3): 91 nm; ζ-potential (mV) ([1]; Table 3): -12.0 mV; mRNA encapsulation rate % ([2]; Table 3): 97.1%
CCCCCCCC/C=C\CCCCCCCC(=O)OC[C@H](COP(=O)(O)OCCNCCC(=O)OCC(CC)CCCC)OC(=O)CCCCCCC/C=C\CCCCCCCC (stereo partly drawn) [DOPE-C6_β2, (R)-2,3-bis(oleoyloxy)propyl (2-((3-((2-ethylhexyl)oxy)-3-oxopropyl)ammonio)ethyl) phosphate]	73	0.07	94	-5.0	95.7							luciferase activity in the liver (liver): highest activity
CCCCCCCC/C=C\CCCCCCCC(=O)OC[C@H](COP(=O)(O)OCCNCCC(=O)OCCCCCC)OC(=O)CCCCCCC/C=C\CCCCCCCC [DOPE-C6, (R)-2,3-bis(oleoyloxy)propyl (2-((3-(hexyloxy)-3-oxopropyl)ammonio)ethyl) phosphate]						59	0.15	-1.4	86	91.5		
CCCCCCCC/C=C\CCCCCCCC(=O)OC[C@H](COP(=O)(O)OCCNCCC(=O)OCCCCCCCCCCCC)OC(=O)CCCCCCC/C=C\CCCCCCCC [DOPE-C12, (R)-2,3-bis(oleoyloxy)propyl (2-((3-(dodecyloxy)-3-oxopropyl)ammonio)ethyl) phosphate]						59	0.25	-6.3	100	94.2	the ratio derived from the inverted hexagonal phase increased	
CCCCCCCC/C=C\CCCCCCCC(=O)OC[C@H](COP(=O)(O)OCCNCCC(=O)OCCC(C)CCC=C(C)C)OC(=O)CCCCCCC/C=C\CCCCCCCC (stereo partly drawn) [DOPE-Cit, (R)-2,3-bis(oleoyloxy)propyl (2-((3-((3,7-dimethyloct-6-en-1-yl)oxy)-3-oxopropyl)ammonio)ethyl) phosphate]	65	0.07	85	-6.1	95.9							
CCCCCCCCCCCCCCCCCC(=O)OC[C@H](COP(=O)([O-])OCC[N+](C)(C)C)OC(=O)CCCCCCCCCCCCCCCCC [DSPC, 1,2-Distearoyl-sn-glycero-3-phosphocholine, reference compound]						56	0.08	-3.6	75	95.7		
CCCCCCCC/C=C\CCCCCCCCOC(=O)CCNCCOP(=O)(O)OC[C@@H](COC(=O)CCCCCCC/C=C\CCCCCCCC)OC(=O)CCCCCCC/C=C\CCCCCCCC [DOPE-C18:1, (R)-2,3-bis(oleoyloxy)propyl (2-((3-(((Z)-octadeca-9-ene-1-yl)oxy)-3-oxopropyl)ammonio)ethyl) phosphate]						56	0.18	-2.9	81	93.9	the ratio derived from the inverted hexagonal phase increased	
CCCCCCCC/C=C\CCCCCCCC(=O)OC[C@H](COP(=O)(O)OCCNCCC(=O)OCCCC)OC(=O)CCCCCCC/C=C\CCCCCCCC [DOPE-C4, (R)-2,3-bis(oleoyloxy)propyl (2-((3-butoxy-3-oxopropyl)ammonio)ethyl) phosphate]						58	0.17	-5.0	87	91.2		
CCCCCCCC/C=C\CCCCCCCC(=O)OC[C@H](COP(=O)(O)OCCNCCC(=O)OCC(CCC)CCCCC)OC(=O)CCCCCCC/C=C\CCCCCCCC (stereo partly drawn) [DOPE-C7_β3, (R)-2,3-bis(oleoyloxy)propyl (2-((3-oxo-3-((2-propylheptyl)oxy)propyl)ammonio)ethyl) phosphate]	61	0.08	79	-9.6	96.0						the ratio derived from the inverted hexagonal phase increased	
CCCCCCCC/C=C\CCCCCCCC(=O)OC[C@H](COP(=O)(O)OCCNCCC(=O)OCC(CCCC)CCCCCC)OC(=O)CCCCCCC/C=C\CCCCCCCC (stereo partly drawn) [DOPE-C8_β4, (R)-2,3-bis(oleoyloxy)propyl (2-((3-((2-butyloctyl)oxy)-3-oxopropyl)ammonio)ethyl) phosphate]	71	0.21	112	-5.8	96.3						the ratio derived from the inverted hexagonal phase increased	
CCCCCCCC/C=C\CCCCCCCC(=O)OC[C@H](COP(=O)(O)OCCNCCC(=O)OC(CC)CC)OC(=O)CCCCCCC/C=C\CCCCCCCC [DOPE-C3_α2, (R)-2,3-bis(oleoyloxy)propyl (2-((3-oxo-3-(pentan-3-yloxy)propyl)ammonio)ethyl) phosphate]												Number average particle size (nm) ([1]; Table 3): 54 nm; PDI ([1]; Table 3): 0.20; ζ-average particle size (nm) ([1]; Table 3): 91 nm; ζ-potential (mV) ([1]; Table 3): -10.5 mV; mRNA encapsulation rate % ([2]; Table 3): 97.2%
CCCCCCCC/C=C\CCCCCCCC(=O)OC[C@H](COP(=O)(O)OCCNCCC(=O)OCCCCCCCCCC)OC(=O)CCCCCCC/C=C\CCCCCCCC [DOPE-C10, (R)-2,3-bis(oleoyloxy)propyl (2-((3-(decyloxy)-3-oxopropyl)ammonio)ethyl) phosphate]						48	0.18	-7.0	82	93.1	the ratio derived from the inverted hexagonal phase increased	
